In patent US20050153306A1, “Fluorogenic enzyme substrates and uses thereof” (IRM LLC, priority 2003, published 2005):

Experiments:
Thrombin = molecular target: T1, Thrombin (Homo sapiens, UniProt P00734); experiment: Enzymatic activity monitored using rhodamine protease substrates (fluorescence); assay type: biochemical; conditions: substrate 250 μM, thrombin 500 pM, 37° C.
T1 construct: purchased Haematologic Technologies (Essex Jct., Vt.)
Procedure: (§1) The substrates 1 and 3 were used at 250 μM. Thrombin was used at a concentration of 500 pM and caspase-3 was used at a concentration of 10 nM. For thrombin a buffer consisting of 50 mM Tris (pH 7.4),200 mM NaCl, 5 mM CaCI2 and 0.01% (v/v) Tween-20 (THB) was used. The buffer for caspase-3 (CAB) consisted of 20 mM HEPES (pH 7.4), 100 mM NaCi, inM EDTA, 0.1% CHAPS,10% (w/v) sucrose and 10 mM DTT. 50 µl of the buffer containing the substrate at a concentration of 500 JIM were transferred into a well of a black 96-well Microfluor plate (Dynex Technologies, Chantilly, Va.). The reaction was initiated by the addition of 50 μL of the buffer containing the enzyme at a concentration of 1 nM for thrombin or 20 nM for caspase-3. The hydrolysis of rhodamine substrates was measured with a Spectramax Gemini XS spectrofluorimeter (Molecular devices, Sunnyvale, Calif.) thermostated at 37° C. using an excitation wavelength of 490 nm, an emission wavelength of 530 nm and a cutoff wavelength of 515 nm.

caspase-3 = molecular target: T2, caspase-3 (Homo sapiens, UniProt P42574); experiment: as above; assay type: biochemical; design: made in house; conditions: substrate 250 μM, caspase-3 10 nM, 37° C.
T2 sequence (P42574 29-175 limits assumed): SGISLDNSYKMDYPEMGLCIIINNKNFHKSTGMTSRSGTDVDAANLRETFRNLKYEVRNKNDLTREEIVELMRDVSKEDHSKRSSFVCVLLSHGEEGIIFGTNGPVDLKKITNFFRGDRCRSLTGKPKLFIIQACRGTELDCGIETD
T2 sequence (P42574 176-277 limits assumed): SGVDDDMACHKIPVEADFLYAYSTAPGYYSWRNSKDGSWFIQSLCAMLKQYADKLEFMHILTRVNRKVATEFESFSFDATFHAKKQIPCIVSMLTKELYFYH
Procedure: as §1

Row | Substance | fluorescence signal (enzymatic hydrolysis of the rhodamine substrate) (Thrombin) | fluorescence signal (enzymatic hydrolysis of the rhodamine substrate) (Thrombin; listed as (nTPR)2-rhodamine-Ac) | fluorescence signal (enzymatic hydrolysis of the rhodamine substrate) (caspase-3) | fluorescence signal (enzymatic hydrolysis of the rhodamine substrate) (caspase-3; listed as (DEVD)2-rhodamine-Ac)
1 | (Ac-nTPR)2-rhodamine-Lys(Ac) [compound 3] | strong fluorescent signal | linear increase in fluorescence | only a slight increase in fluorescence | 
2 | (Ac-DEVD)2-rhodamine-Lys(Ac) [compound 1] | only a slight increase in fluorescence |  | strong fluorescent signal | linear increase in fluorescence
